Experimental data taken from patent US12458630B2, “Combination therapy for cancer” (The Regents of the University of California, priority 2020, dated 2025).
“Also recorded” adds a separate entry of the source.

How the values were obtained:
MIA PaCa-2 cells = assay: Cell viability assay (CCK-8); type: cell-based, human; settings: for cell viability in NHE1-silenced cells: NHE1 KD MIA PaCa-2 cells
Procedure: (§1) Cell viability assay. Cell viability was determined with Cell Counting Kit-8 assay (CCK-8 assay kit, Glpbio). Cells were plated in 96-well plates at a density of 3000 cells (MIA PaCa-2) or 1500 cells (KC6141) per well and incubated overnight prior to treatment. EIPA (10 μM), MRT68921 (600 nM) or erlotinib (2 μM, Sigma) were added to the wells for 72 and 96 hrs. Next, 10 μL of CCK-8 was added to each well. The optical density was read at 450 nm using a microplate reader (FilterMax F5, Molecular Devices, USA) at day 0, 1, 2, 3, and 4. For glutamine-deprivation assays, cells in 96-well plates were rinsed briefly in PBS and incubated in the 0.2 mM glutamine. Glutamine-free DMEM medium was supplemented with 0.2 mM glutamine in the presence of 10% dialysed FBS and 25 mM HEPES. For some conditions, the medium was supplemented with a final concentration of 2% BSA (Fraction V, fatty-acid-, nuclease and protease-free, Calbiochem). For all experiments, media were replaced every 24 hrs. Viable cell counts were obtained using CCK-8 assay described as above.
(§2) In some embodiments, cells were plated in 96-well plates coated with or without ECM at a density of 3000 cells (MIA PaCa-2, 1444, 1305, COLO 357/FG) or 1500 cells (KC6141) per well and incubated overnight prior to treatment. EIPA (10.5 μM), IPI549 (600 nM), MBQ-167 (500 nM), MRT68921 (600 nM) or erlotinib (2 μM, Sigma), ML385 (10 μM, Sigma), HCQ (10 μM or 80 μM) or their combinations were added to the wells for 24, 72 or 96 hrs. Next, 10 μL of CCK-8 was added to each well. The optical density was read at 450 nm using a microplate reader (FilterMax F5, Molecular Devices, USA) at day 0, 1, 2, 3, and 4. For glutamine-deprivation assays, cells in 96-well plates were rinsed briefly in PBS and incubated in the 0.2 mM glutamine. Glutamine-free DMEM medium was supplemented with 0.2 mM glutamine in the presence of 10% dialyzed FBS and 25 mM HEPES. For glucose-deprivation assays, cells in 96-well plates were rinsed briefly in PBS and incubated in the 0.5 mM glucose. Glucose-free DMEM medium was supplemented with 0.5 mM glucose in the presence of 10% dialyzed FBS and 25 mM HEPES. For some conditions, the medium was supplemented with a final concentration of 2% BSA (Fraction V, fatty-acid-, nuclease and protease-free, Calbiochem). For all experiments, media were replaced every 24 hrs. Viable cell counts were obtained using CCK-8 assay described as above.

KC6141 mouse PDAC cells = assay: Cell viability assay (CCK-8); type: cell-based; settings: 3 days; for cell viability vs vehicle: WT, Ikkα-KD, Nhe1-KD, Ikkα-KD;Nhe1-KD KC6141 cells
Procedure: (§3) Extracellular Matrix (ECM) Preparation. Skin fibroblasts were seeded on 6/12/96-well plates. One day after plating, cells were switched into DMEM (with pyruvate) with 10% dialysed FBS supplemented with or without 500 μM ^3H-proline and 100 μM Vitamin C. Cells were cultured for 6 days with media renewal every 24 h. After six days, skin fibroblasts were removed by washing in 1 ml or 500 μl or 100 μl per well PBS with 0.5% (v/v) Triton X-100 and 20 mM NH4OH. ECM was washed five times with PBS before plating KC6141 cells. The following day, KC6141 cells were switched into the indicated medium for 24 or 72 hrs.
as §1, §2

KC6141 cells [1] = assay: L-Amino acid assay; type: cell-based, mouse; settings: 0.5 mM glucose, 24 hrs; for amino acid content: KC6141 cells on ECM
Procedure: as §3
L-Amino Acid Assay. Total amount of free L-amino acids (except for glycine) were measured by L-Amino Acid Assay Kit (Colorimetric) (antibodies) according to manufacturer's protocol. Briefly, KC6141 cells were grown on 6-well plates coated with or without ECM and treated as above. The cells were resuspended at 10^6 cells/mL 1× Assay Buffer and were homogenized on ice and then centrifuged to remove debris. 50 μL of each L-Alanine standard or cell lysis was added into wells of a 96-well microtiter plate. Then 50 μL of Reaction Mix was added to each well. The well contents were mixed thoroughly and incubated for 90 minutes at 37° C. protected from light. The plate was read with a spectrophotometric microplate reader in the 540-570 nm range. The concentration of L-Amino Acids was calculated within samples by comparing the sample OD to the standard curve.

KC6141 cells [2] = assay: Luminescence ATP detection assay; type: cell-based, mouse; settings: 0.5 mM glucose, 24 hrs; for cellular ATP: KC6141 cells on ECM, EIPA 10.5 μM, MBQ-167 500 nM, MRT68921 600 nM
Procedure: as §3
Luminescence ATP Detection Assay. Intracellular ATP level was determined with luminescence ATP detection assay system (PerkinElmer) according to manufacturer's protocol. Briefly, KC6141 cells were grown on 96-well plates coated with or without ECM in the presence of 100 μl 0.5 mM glucose medium with or without EIPA (10.5 μM), MBQ-167 (500 nM), MRT68921 (600 nM) or their combinations for 24 hrs. 50 μl mammalian cell lysis solution was added and shaken for 5 minutes. Next, 50 μl substrate solution was added and shaken for five minutes. Finally, plate was adapted in dark for 10 minutes and luminescence was measured.

KC6141 cells [3] = assay: BrdU incorporation (immunofluorescence); type: cell-based, mouse; settings: 0.5 mM glucose, 24 hrs; for BrdU incorporation (cell proliferation): KC6141 cells on ECM
[4] = p62 KD or Nrf2 KD KC6141 cells on ECM

SMILES | sensitivity to single agent (cell viability) (MIA PaCa-2 cells; ATG7^Δ or IKKα-deficient MIA PaCa-2 cells, 3 days) | sensitivity of IKKα- or ATG7-deficient cells to EIPA (CCK-8) (MIA PaCa-2 cells; IKKα^Δ / ATG7^Δ vs WT MIA PaCa-2 cells (TP53 mutated), complete medium) | cell viability in NHE1-silenced cells (MIA PaCa-2 cells; 3 days) | proliferation restored by albumin supplementation (MIA PaCa-2 cells; WT and IKKα KO MIA PaCa-2 cells, 0.2 mM glutamine with albumin, 3 days) | cell viability (total viable cells relative to day 0) (MIA PaCa-2 cells; WT and IKKα^Δ MIA PaCa-2 cells, complete medium, EIPA 10.5 μM) | enhanced proliferation caused by loss of IKKα or ATG7 (MIA PaCa-2 cells; WT, IKKα KO, ATG7 KO MIA PaCa-2 cells, complete medium, EIPA 10 μM, days 0-4) | sensitivity to single agent (cell viability) (KC6141 mouse PDAC cells; IKKα-deficient KC6141 cells) | cell viability enhanced by extracellular matrix (ECM) (KC6141 mouse PDAC cells; WT and IKKα KD 6141 cells on ECM, 0.5 mM glucose, EIPA, IPI549 600 nM, MBQ-167 500 nM) | cell viability vs vehicle (KC6141 mouse PDAC cells) | amino acid content (KC6141 cells [1]) | amino acid content in p62/NRF2 ablated cells (KC6141 cells [1]; [4]) | cellular ATP (KC6141 cells [2]) | cellular ATP in p62/NRF2 ablated cells (KC6141 cells [2]; [4]) | BrdU incorporation (cell proliferation) (KC6141 cells [3]) | BrdU incorporation in NRF2 ablated cells (KC6141 cells [3]; Nrf2 KD KC6141 cells on ECM) | cell growth, single agent (KC6141 mouse PDAC cells; IKKα KD KC6141 cells, erlotinib 2 μM, MRT68921 600 nM) | BrdU incorporation (cell proliferation) (KC6141 cells [3]; listed as MRT)
CCN(c1nc(N)c(C(=O)N=C(N)N)nc1Cl)C(C)C [EIPA, 5-(N-ethyl-N-isopropyl) amiloride] | very sensitive | much more sensitive; also recorded: highly sensitive | EIPA-insensitive | completely abrogated | suppression of cell viability | abrogated | very sensitive | suppressed | suppression of cell viability | reduced | ineffective | reduced | ineffective | reduced; also recorded: suppressed cell proliferation in all conditions | ineffective |  | 
CN1CCc2cc(Nc3ncc(C4CC4)c(NCCCNC(=O)C4CCC4)n3)ccc2C1 [MRT68921] |  |  | severely compromised cell viability |  |  |  |  |  | suppression of cell viability | further elevated |  | further elevated |  | further elevated |  | limited | enhanced cell proliferation in WT, but not in Nrf2 KD KC6141
